Here are results for 25 molecules from US20080076760A1, “2,3,4,5-TETRAHYDRO-1H-1,5-BENZODIAZEPINE DERIVATIVE AND MEDICINAL COMPOSITION” (priority 2004, published 2008).

Each structure is given as a SMILES string. Where two headings read alike, the source gives them in different places.

The target of assay [1] is human vasopressin V1a receptor (Homo sapiens, UniProt P37288). Nature of the assay: Receptor binding study, [3H]AVP displacement on CHO cell membranes, human V1a. Put shortly: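 Membrane binding in 50 mM Tris-HCl pH 7.4 with MgCl2 and 0.1% BSA, incubated 1 h at 25° C. Bound ligand collected by rapid filtration on glass fiber filters, washed with ice-cold buffer, and counted for radioactivity. Nonspecific binding defined with 1 μM unlabeled AVP.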
human vasopressin V1a receptor, sequence (P37288 whole entry): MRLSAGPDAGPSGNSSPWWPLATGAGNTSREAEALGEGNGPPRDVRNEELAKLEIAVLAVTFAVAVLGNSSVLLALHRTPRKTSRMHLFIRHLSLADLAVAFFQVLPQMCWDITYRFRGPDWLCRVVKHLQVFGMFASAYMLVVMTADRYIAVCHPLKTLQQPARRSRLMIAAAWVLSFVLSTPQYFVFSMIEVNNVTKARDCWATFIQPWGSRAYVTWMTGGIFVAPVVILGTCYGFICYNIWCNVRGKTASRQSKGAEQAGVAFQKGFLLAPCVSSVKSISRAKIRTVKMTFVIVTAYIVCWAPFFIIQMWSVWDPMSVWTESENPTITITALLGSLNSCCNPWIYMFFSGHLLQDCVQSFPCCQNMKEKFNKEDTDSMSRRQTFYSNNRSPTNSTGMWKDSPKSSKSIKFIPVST

In assay [2] the target is human vasopressin V2 receptor (Homo sapiens, UniProt P30518). The assay can be described thus: Receptor binding study, [3H]AVP displacement on CHO cell membranes, human V2. Put shortly:
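Membranes from CHO cells expressing human V2 receptor incubated with [3H]AVP (0.5-1.0 nM) and test compound at various concentrations in 50 mM Tris-HCl pH 7.4 with MgCl2 and 0.1% BSA, 1 h at 25 °C. Bound radioactivity counted after glass-fibre filtration; nonspecific binding defined with 1 μM unlabelled AVP.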

The mark [3] stands for this setting: [3H]AVP displacement, CHO cell membrane, 25° C., one hour, read-out: Human V1a Ki.
[4] abbreviates: [3H]AVP displacement, CHO cell membrane, 25° C., one hour, read-out: Human V2 Ki.

What is called Ki is the equilibrium dissociation constant of an inhibitor or competing ligand from its target.

human vasopressin V2 receptor, sequence (P30518 whole entry): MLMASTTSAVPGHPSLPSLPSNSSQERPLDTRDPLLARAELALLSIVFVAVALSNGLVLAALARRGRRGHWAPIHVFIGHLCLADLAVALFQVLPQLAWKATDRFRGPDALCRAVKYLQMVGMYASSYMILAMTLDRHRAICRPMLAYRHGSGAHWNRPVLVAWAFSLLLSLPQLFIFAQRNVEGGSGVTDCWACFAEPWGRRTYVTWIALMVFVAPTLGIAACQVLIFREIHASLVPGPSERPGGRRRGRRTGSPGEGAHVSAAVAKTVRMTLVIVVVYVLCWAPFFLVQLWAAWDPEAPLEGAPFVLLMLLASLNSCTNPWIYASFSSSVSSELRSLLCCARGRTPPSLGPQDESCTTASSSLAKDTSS

Turning to `C[C@@H]1CN(CCCOc2cc(C(=O)N3CC[C@H](C)Nc4ccccc43)ccc2-c2ccc3[nH]ccc3c2)C[C@H](C)O1` [Example 115, (4S)-1-[3-[3-[(2R,6S)-2,6-dimethylmorpholinyl]propoxy]-4-(1H-indol-5-yl)benzoyl]-4-methyl-2,3,4,5-tetrahydro-1H-1,5-benzodiazepine], the Ki in assay [1] (setting [3]) is 0.27 nM; in assay [2] (setting [4]) it was 4.9 nM.

As to `CCN(CC)CCCOc1cc(C(=O)N2CC[C@H](C)Nc3ccccc32)ccc1-c1ccc2[nH]ccc2c1` [Example 116, N,N-diethyl-3-[2-(1H-indol-5-yl)-5-[[(4S)-4-methyl-2,3,4,5-tetrahydro-1H-1,5-benzodiazepin-1-yl]carbonyl]phenoxy]-1-propaneamine], the inhibitory constant (Ki) stood at 0.16 nM in assay [1] (setting [3]) and 11 nM in assay [2] (setting [4]).

Regarding `CCCN(C)CCCCOc1cc(C(=O)N2CC[C@H](C)Nc3ccccc32)ccc1-c1ccc2[nH]ccc2c1` [Example 117, N-[4-[2-(1H-indol-5-yl)-5-[[(4S)-4-methyl-2,3,4,5-tetrahydro-1H-1,5-benzodiazepin-1-yl]carbonyl]phenoxy]butyl]-N-methyl-N-propylamine], the Ki worked out at 0.21 nM in assay [1] and 12 nM in assay [2].

As to `CCN(C)CCCOc1cc(C(=O)N2CC[C@H](C)Nc3ccccc32)ccc1-c1ccc2[nH]ccc2c1` [Example 118, N-ethyl-3-[2-(1H-indol-5-yl)-5-[[(4S)-4-methyl-2,3,4,5-tetrahydro-1H-1,5-benzodiazepin-1-yl]carbonyl]phenoxy]-N-methyl-1-propaneamine], the results for the Ki in assay [1] (setting [3]) and in assay [2] (setting [4]) were 0.15 nM and 9.5 nM, respectively.

As to `C[C@H]1CCN(C(=O)c2ccc(-c3ccc4[nH]ccc4c3)c(C(=O)OCCCN(C)C)c2)c2ccccc2N1` [Example 120, 3-(dimethylamino)propyl 2-(1H-indol-5-yl)-5-[[(4S)-4-methyl-2,3,4,5-tetrahydro-1H-1,5-benzodiazepin-1-yl]carbonyl]benzoate], the results for the Ki in assay [1] (setting [3]) and in assay [2] (setting [4]) were 0.2 nM and 93 nM, respectively.

As to `CCCN(C)CCOc1cc(C(=O)N2CC[C@H](C)Nc3ccccc32)ccc1-c1ccc2[nH]ccc2c1` [Example 121, N-[2-[2-(1H-indol-5-yl)-5-[[(4S)-4-methyl-2,3,4,5-tetrahydro-1H-1,5-benzodiazepin-1-yl]carbonyl]phenoxy]ethyl]-N-methyl-1-propaneamine], the Ki amounted to 0.14 nM in assay [1] (setting [3]) and 10 nM in assay [2] (setting [4]).

Take `CCCCN1CCN(CCCOc2cc(C(=O)N3CC[C@H](C)Nc4ccccc43)ccc2-c2ccc3[nH]ccc3c2)CC1` [Example 122, (4S)-1-[3-[3-(4-butyl-1-piperazinyl)propoxy]-4-(1H-indol-5-yl)benzoyl]-4-methyl-2,3,4,5-tetrahydro-1H-1,5-benzodiazepine]: the Ki is 0.21 nM in assay [1] (setting [3]) and 5.1 nM in assay [2] (setting [4]).

For the molecule `C[C@H]1CCN(C(=O)c2ccc(-c3ccc4[nH]ccc4c3)c(OCCCN3CCC(N(C)C)CC3)c2)c2ccccc2N1` [Example 123], the figures for the Ki in assay [1] (setting [3]) and in assay [2] (setting [4]) were 0.38 nM and 9.9 nM, respectively.

For the molecule `CCCCN(CC)CCCOc1cc(C(=O)N2CC[C@H](C)Nc3ccccc32)ccc1-c1ccc2[nH]ccc2c1` [Example 124, N-ethyl-N-[3-[2-(1H-indol-5-yl)-5-[[(4S)-4-methyl-2,3,4,5-tetrahydro-1H-1,5-benzodiazepin-1-yl]carbonyl]phenoxy]propyl]-1-butaneamine], the Ki in assay [1] (setting [3]) turned out to be 0.37 nM; in assay [2] (setting [4]), 20 nM.

On to `CCCN(CC)CCCOc1cc(C(=O)N2CC[C@H](C)Nc3ccccc32)ccc1-c1ccc2[nH]ccc2c1` [Example 125, N-ethyl-3-[2-(1H-indol-5-yl)-5-[[(4S)-4-methyl-2,3,4,5-tetrahydro-1H-1,5-benzodiazepin-1-yl]carbonyl]phenoxy]-N-propyl-1-propaneamine], for which the Ki worked out at 0.18 nM in assay [1] (setting [3]) and 15 nM in assay [2] (setting [4]).

`CCCN(C)CCCCCOc1cc(C(=O)N2CC[C@H](C)Nc3ccccc32)ccc1-c1ccc2[nH]ccc2c1` [Example 126]: the Ki in assay [1] (setting [3]) was determined as 0.24 nM; in assay [2] (setting [4]) it was 7 nM.

For the molecule `CCCN(C)CCCOc1cc(C(=O)N2CC[C@@H](C)Nc3ccccc32)ccc1-c1ccc2[nH]ccc2c1` [Example 127, N-[3-[2-(1H-indol-5-yl)-5-[[(4R)-4-methyl-2,3,4,5-tetrahydro-1H-1,5-benzodiazepin-1-yl)carbonyl]phenoxy]propyl]-N-methyl-N-propylamine], the Ki worked out at 0.21 nM in assay [1] (setting [3]) and 77 nM in assay [2] (setting [4]).

As for `CCCN1CCN(CCCOc2cc(C(=O)N3CC[C@@H](C)Nc4ccccc43)ccc2-c2ccc3[nH]ccc3c2)CC1` [Example 128, (4R)-1-[4-(1H-indol-5-yl)-3-[3-(4-propyl-1-piperazinyl)propoxy]benzoyl]-4-methyl-2,3,4,5-tetrahydro-1H-1,5-benzodiazepine], the Ki came out at 0.2 nM in assay [1] (setting [3]) and 39 nM in assay [2] (setting [4]).

Regarding `CCCN(C)CCCOc1cc(C(=O)N2CC[C@H](C)Nc3ccccc32)ccc1-c1ccc(NCC)cc1` [Example 129, N-ethyl-2′-[3-[methyl(propyl)amino]propoxy]-4′-[[(4S)-4-methyl-2,3,4,5-tetrahydro-1H-1,5-benzodiazepin-1-yl]carbonyl][1,1′-biphenyl]-4-amine], the Ki in assay [1] (setting [3]) came out at 0.4 nM; in assay [2] (setting [4]) it was 88 nM.

Turning to `CCCN(C)CCCOc1cc(C(=O)N2CC[C@@H](C)Nc3ccccc32)ccc1-c1ccc(NC)cc1` [Example 130, N-methyl-2′-[3-[methyl(propyl)amino]propoxy]-4′-[[(4R)-4-methyl-2,3,4,5-tetrahydro-1H-1,5-benzodiazepin-1-yl]carbonyl][1,1′-biphenyl]-4-amine], the values for the Ki in assay [1] (setting [3]) and in assay [2] (setting [4]) were 0.36 nM and 309 nM, respectively.

Consider `CCCN(C)CCCOc1cc(C(=O)N2CC[C@H](C)Nc3ccccc32)ccc1-c1ccc(OC)cc1` [Example 131, N-[3-[[4′-methoxy-4-[[(4S)-4-methyl-2,3,4,5-tetrahydro-1H-1,5-benzodiazepin-1-yl]carbonyl][1,1′-biphenyl]-2-yl]oxy]propyl]-N-methyl-N-propylamine], for which the Ki turned out to be 0.26 nM in assay [1] (setting [3]) and 83 nM in assay [2] (setting [4]).

As for `CCCN(C)CCCOC(=O)c1cc(C(=O)N2CC[C@H](C)Nc3ccccc32)ccc1-c1ccc2[nH]ccc2c1` [Example 132, 3-[methyl(propyl)amino]propyl 2-(1H-indol-5-yl)-5-[[(4S)-4-methyl-2,3,4,5-tetrahydro-1H-1,5-benzodiazepin-1-yl]carbonyl]benzoate], the Ki was 0.25 nM in assay [1] (setting [3]) and 172 nM in assay [2] (setting [4]).

`C[C@H]1CCN(C(=O)c2ccc(-c3ccc4[nH]ccc4c3)c(N3CCOCC3)c2)c2ccccc2N1` [Example 134, (4S)-1-[4-(1H-indol-5-yl)-3-(4-morpholinyl)benzoyl]-4-methyl-2,3,4,5-tetrahydro-1H-1,5-benzodiazepine]: the Ki in assay [1] (setting [3]) stood at 0.49 nM; in assay [2] (setting [4]), 2.7 nM.

As to `C[C@H]1CCN(C(=O)c2ccc(-c3ccc4[nH]ccc4c3)c(C(=O)OCCCN3CCN(C)CC3)c2)c2ccccc2N1` [Example 136, 3-(4-methyl-1-piperazinyl)propyl 2-(1H-indol-5-yl)-5-[[(4S)-4-methyl-2,3,4,5-tetrahydro-1H-1,5-benzodiazepin-1-yl]carbonyl]benzoate], the Ki in assay [1] (setting [3]) was 0.23 nM; in assay [2] (setting [4]), 16 nM.

With `CCCN1CCC(OC(=O)c2cc(C(=O)N3CC[C@H](C)Nc4ccccc43)ccc2-c2ccc3[nH]ccc3c2)CC1` [Example 138], the Ki is 0.23 nM in assay [1] (setting [3]) and 34 nM in assay [2] (setting [4]).

Turning to `C[C@H]1CCN(C(=O)c2ccc(-c3ccc4[nH]ccc4c3)c(OCCCN3CCC(N)CC3)c2)c2ccccc2N1` [Example 141, 1-[3-[2-(1H-indol-5-yl)-5-[[(4S)-4-methyl-2,3,4,5-tetrahydro-1H-1,5-benzodiazepin-1-yl]carbonyl]phenoxy]propyl]-4-piperidinylamine], the Ki in assay [1] (setting [3]) came to 0.45 nM; in assay [2] (setting [4]), 10 nM.

As for `C[C@H]1CCN(C(=O)c2ccc(-c3ccc4[nH]ccc4c3)c(C(=O)OCCN(C)C)c2)c2ccccc2N1` [Example 144, 2-(dimethylamino)ethyl 2-(1H-indol-5-yl)-5-[[(4S)-4-methyl-2,3,4,5-tetrahydro-1H-1,5-benzodiazepin-1-yl]carbonyl]benzoate], the figures for the Ki in assay [1] (setting [3]) and in assay [2] (setting [4]) were 0.11 nM and 28 nM, respectively.

`CCN1CCC(OC(=O)c2cc(C(=O)N3CC[C@H](C)Nc4ccccc43)ccc2-c2ccc3[nH]ccc3c2)C1` (stereo partly drawn) [Example 145, 1-ethyl-3-pyrrolidinyl 2-(1H-indol-5-yl)-5-[[(4S)-4-methyl-2,3,4,5-tetrahydro-1H-1,5-benzodiazepin-1-yl]carbonyl]benzoate]: the Ki in assay [1] (setting [3]) is 0.12 nM; in assay [2] (setting [4]) it was 20 nM.

Regarding `CCCCN1CCN(CCOc2cc(C(=O)N3CC[C@H](C)Nc4ccccc43)ccc2-c2ccc3[nH]ccc3c2)CC1` [Example 148, (4S)-1-[3-[2-(4-butyl-1-piperazinyl)ethoxy]-4-(1H-indol-5-yl)benzoyl]-4-methyl-2,3,4,5-tetrahydro-1H-1,5-benzodiazepine], the inhibition constant Ki in assay [1] (setting [3]) was found to be 0.23 nM; in assay [2] (setting [4]), 9.6 nM.

Take `C[C@H]1CCN(C(=O)c2ccc(-c3ccc4[nH]ccc4c3)c(N3CCN(C)CC3)c2)c2ccccc2N1` [Example 149, (4S)-1-[4-(1H-indol-5-yl)-3-(4-methyl-1-piperazinyl)benzoyl]-4-methyl-2,3,4,5-tetrahydro-1H-1,5-benzodiazepine]: the Ki was 0.29 nM in assay [1] (setting [3]) and 1.9 nM in assay [2] (setting [4]).
